Several values for one entry are separate records, joined by “and”; a condition that tells them apart may be missing. Equal values may be shown once.
Experiments:
[1] = system: LoVo (human colon-carcinoma) cell line; assay: Cytotoxicity against LoVo cell line; format: cell-based
[2] = system: SKOV3 (human ovarian carcinoma) cell line; assay: Cytotoxicity against SKOV3 cell line; details: Table 2
[3] = system: KB (human nasopharyngeal carcinoma) cell line; assay: Cytotoxicity against KB cell line; format: cell-based
[4] = system: Panc 03 (pancreatic ductal adenocarcinoma #03, P03); details: Exp # 1878; SC P03; 9 inj. IV; 82 mg/kg TD
Experimental: Gross log kill is defined as T-C/3.2 Td where T is the median time in days for the tumors of the treated group to reach 750 mg, C is the median time in days for the tumors of the control group to reach 750 mg, and Td is the tumor volume doubling time.

[5] = system: murine leukemia (L1210 or P388), murine solid tumor, human solid tumor and low malignancy fibroblast (LML) cells; details: for Differential in Zone Units, Corbett Assay: μg/disk as for E3

Row | Compound | LoVo IC50 ([1]; Table 2) [ng/mL] | SKOV3 IC50 [2] [ng/mL] | KB IC50 ([3]; Table 2) [ng/mL] | other results
1 | COc1ccc(C[C@H]2NC(=O)/C=C/C[C@@H](C/C=C/c3ccccc3)OC(=O)[C@H](CC(C)C)OC(=O)[C@H](C)CNC2=O)cc1Cl [Cryptophycin 28] | 0.75 | 6.1 | 1.5 | 
2 | COc1ccc(C[C@H]2NC(=O)CC(C[C@H](O)[C@H](C)/C=C/c3ccccc3)OC(=O)[C@H](CC(C)C)OC(=O)[C@H](C)CNC2=O)cc1Cl (some centres unmarked) [Cryptophycin 26] | 9.8 | 95 | 19 | 
3 | COc1ccc(CC(NC(=O)C=CCC2OC(c3ccccc3)C(O)C2C)C(=O)O)cc1Cl (centres unmarked) [Cryptophycin 7] |  |  |  | LoVo IC50 ([1]; Table 1): ≥ 480 ng/mL; KB IC50 ([3]; Table 1): ≥ 750 ng/mL
4 | CC(C)C[C@@H]1OC(=O)[C@H](C)CNC(=O)[C@@H](Cc2ccc(O)c(Cl)c2)NC(=O)/C=C/C[C@@H]([C@H](C)[C@H]2O[C@@H]2c2ccccc2)OC1=O [Cryptophycin 16] |  | 0.64 | 0.08 | % Body Wt. Loss at Nadir [4]: -1%; Cures [4]: 0/5; Log Kill [4]: None; T/C [4]: 89%
5 | COc1c(Cl)cc(CC2NC(=O)C=CCC(C(C)C3OC3c3ccccc3)OC(=O)C(CC(C)C)OC(=O)C(C)CNC2=O)cc1Cl (centres unmarked) [Cryptophycin 31] | 0.062 | 1.9 | 0.53 | 
6 | COc1ccc(C[C@H]2NC(=O)/C=C/C[C@@H]([C@H](C)[C@H]3O[C@@H]3c3ccccc3)OC(=O)[C@H](CC(C)C)OC(=O)[C@H](C)CNC2=O)cc1 [Cryptophycin 2] | 0.021 | 0.18 |  | Differential in Zone Units, Corbett Assay [5]: > 400 Zone Units; Type of Cytotoxicity, Corbett Assay ([5]; μg/disk: 1 12.5, 2 25, 3 25, 4 20, 5 2.9, 6 250, 8 30, 5-FU 2.5, VP-16 5, taxol 0.2, ^c selective against drug-sensitive and drug-resistant cell lines, ^d drug-sensitive cell lines only): E/T; LoVo IC50 ([1]; Table 1): 0.0002 ng/mL
7 | COc1ccc(C[C@@H](NC(=O)/C=C/C[C@@H]2O[C@@H](c3ccccc3)[C@H](O)[C@H]2C)C(=O)NC[C@@H](C)C(=O)O)cc1Cl [Cryptophycin 12] |  |  | 18 | KB IC50 ([3]; Table 1): ≥ 100 ng/mL
8 | COc1ccc(CC2NC(=O)C=CCC(CC3OC3c3ccccc3)OC(=O)C(CC(C)C)OC(=O)C(C)CNC2=O)cc1Cl (centres unmarked) [Cryptophycin 40] | 1.0 |  | 9.0 | 
9 | COc1ccc(C[C@H]2NC(=O)/C=C/C[C@@H]([C@H](C)[C@@H](O)[C@@H](O)c3ccccc3)OC(=O)[C@H](CC(C)C)OC(=O)[C@H](C)CNC2=O)cc1Cl [Cryptophycin 15] |  | 12 |  | 
10 | CCC[C@@H]1OC(=O)[C@H](C)CNC(=O)[C@@H](Cc2ccc(OC)c(Cl)c2)NC(=O)/C=C/C[C@@H]([C@H](C)[C@H]2O[C@@H]2c2ccccc2)OC1=O [Cryptophycin 50] |  | 0.2 |  | 
11 | COc1ccc(C[C@@H](NC(=O)/C=C/C[C@H](O)[C@H](C)[C@@H](O)[C@@H](OC)c2ccccc2)C(=O)NC[C@@H](C)C(=O)O)cc1Cl [Cryptophycin 10] |  |  |  | LoVo IC50 ([1]; Table 1): ≥ 100 ng/mL; KB IC50 ([3]; Table 1): ≥ 100 ng/mL
12 | COc1cc([C@@H]2c3cc4c(cc3[C@@H](O[C@@H]3O[C@@H]5CO[C@@H](C)O[C@H]5[C@H](O)[C@H]3O)[C@H]3COC(=O)[C@H]23)OCO4)cc(OC)c1O [VP-16, etoposide, reference compound] |  |  |  | Differential in Zone Units, Corbett Assay [5]: 350 Zone Units and 530 Zone Units
13 | CC[C@H](C)[C@@H]1OC(=O)[C@H](C)CNC(=O)[C@@H](Cc2ccc(OC)c(Cl)c2)NC(=O)/C=C/C[C@@H]([C@H](C)[C@H]2O[C@@H]2c2ccccc2)OC1=O [Cryptophycin 54] | 2.2 | 2.2 | 0.80 | 
14 | CCCC1OC(=O)C(C)CNC(=O)C(Cc2ccc(OC)c(Cl)c2)NC(=O)C=CCC(C(C)C=Cc2ccccc2)OC1=O (centres unmarked) [Cryptophycin 49] |  | 1.1 |  | 

Source: US5955423A (priority 1995, dated 1999)
